Laboratory results from patent publication US20150105252A1, “SUBSTITUTED PYRAZOLES AS HERBICIDES” (E I DU PONT DE NEMOURS AND COMPANY, priority 2013, published 2015).

Columns and labels:
pigweed [1] = assay: Test A preemergence; format: in vivo, Amaranthus retroflexus; conditions: preemergence; for Pigweed plant response rating (0 to 100 scale): 125 g ai/ha, visual injury approx. 10 days after treatment; for Pigweed plant response rating: 500 g ai/ha, visual injury after approx. 10 days, 0 to 100 scale (0 no effect, 100 complete control)
Method in brief: (§1)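 Visual injury ratings, 0 = no effect to 100 = complete control, taken about 10 days after treatment against untreated controls. Test chemicals, in a non-phytotoxic surfactant-containing solvent, were sprayed onto soil preemergence or onto one- to two-leaf plants (2–10 cm) postemergence, in loam–sand soil under greenhouse conditions.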

morningglory = assay: Test A postemergence; format: in vivo, Ipomoea spp.
Method in brief: as §1

pigweed [2] = assay: Test A postemergence; format: in vivo, Amaranthus retroflexus
Method in brief: as §1

wheat [3] = assay: Test A postemergence; format: in vivo, Triticum aestivum
Method in brief: as §1

barnyardgrass = assay: Test B flood; format: in vivo, Echinochloa crus-galli; conditions: 250 g ai/ha, visual rating on 0 to 100 scale (0 no effect, 100 complete control), 13 to 15 days
Method in brief: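 Two-leaf-stage plants, pots flooded (3 cm above soil) and treated through the water, which stayed at that depth. After 13–15 days in greenhouse conditions, visual assessment versus controls: 0 is no effect, 100 complete control, dash means no result.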

blackgrass = assay: Test C preemergence; format: in vivo, Alopecurus myosuroides; conditions: preemergence; for Plant response rating, Blackgrass: 125 g ai/ha, scale 0 to 100, 0 = no effect, 100 = complete control
Method in brief: (§2)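 In this greenhouse assay, seeded soil (loam plus sand) or emerged seedlings in peat-vermiculite medium were treated with formulated compound. Roughly two weeks later (13–15 days), each species was scored visually relative to controls, from 0 for no effect to 100 for complete control.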

ryegrass, Italian = assay: Test C preemergence; format: in vivo, Lolium multiflorum; conditions: preemergence; for Plant response rating, Ryegrass, Italian: 125 g ai/ha, scale 0 to 100, 0 = no effect, 100 = complete control
Method in brief: as §2

crabgrass, large = assay: Test C preemergence; format: in vivo, Digitaria sanguinalis; conditions: preemergence; for Plant response rating, Crabgrass, Large: 125 g ai/ha, scale 0 to 100, 0 = no effect, 100 = complete control
Method in brief: as §2

foxtail, giant = assay: Test C preemergence; format: in vivo, Setaria faberii; conditions: preemergence; for Plant response rating, Foxtail, Giant: 125 g ai/ha, scale 0 to 100, 0 = no effect, 100 = complete control
Method in brief: as §2

oilseed rape = assay: Test C preemergence; format: in vivo, Brassica napus; conditions: preemergence; for Plant response rating, Oilseed Rape: 125 g ai/ha, scale 0 to 100, 0 = no effect, 100 = complete control
Method in brief: as §2

wheat [4] = assay: Test C postemergence; format: in vivo, Triticum aestivum; conditions: postemergence; for Plant response rating, Wheat: 250 g ai/ha, scale 0 to 100 (0 no effect, 100 complete control); for Wheat plant response rating: scale 0 to 100
Method in brief: as §2

galium = assay: Test C postemergence; format: in vivo, Galium aparine; conditions: for Plant response rating (scale of 0 to 100 where 0 is no effect and 100 is complete control), Galium: Postemergence, 31 g ai/ha, visually evaluated after 13 to 15 days; for Galium plant response rating / Plant response rating, Galium: postemergence; for Galium plant response rating: 62 g ai/ha, scale 0 to 100
Method in brief: as §2

corn = assay: Test C postemergence; format: in vivo, Zea mays; conditions: for Plant response rating (scale of 0 to 100 where 0 is no effect and 100 is complete control), Corn: Postemergence, 31 g ai/ha, visually evaluated after 13 to 15 days; for Corn plant response rating / Plant response rating, Corn: postemergence; for Corn plant response rating: 62 g ai/ha, scale 0 to 100
Method in brief: as §2

[5] = Postemergence, 500 g ai/ha, 0 to 100 scale (0 no effect, 100 complete control)
[6] = postemergence, 125 g ai/ha, about 10 days, visual rating on 0 to 100 scale (0 no effect, 100 complete control)
[7] = 31 g ai/ha, visual rating, scale 0 to 100 (0 no effect, 100 complete control), 13 to 15 days
[8] = 62 g ai/ha, scale 0 to 100 (0 no effect, 100 complete control), 13 to 15 days
[9] = 250 g ai/ha, scale 0 to 100, 0 is no effect, 100 is complete control
[10] = 250 g ai/ha, scale 0 to 100 (0 no effect, 100 complete control)
[11] = 125 g ai/ha, scale 0 to 100, 0 no effect, 100 complete control

Row | SMILES | Pigweed plant response rating (0 to 100 scale) (pigweed [1]) | Pigweed plant response rating (pigweed [1]) | Morningglory plant response rating (morningglory; [5]) | Morningglory plant response rating (morningglory; [6]) | Pigweed plant response rating (pigweed [2]; [5]) | Pigweed plant response rating (pigweed [2]; [6]) | Wheat plant response rating (wheat [3]; [5]) | Wheat plant response rating (wheat [3]; [6]) | Plant response rating, Barnyardgrass (barnyardgrass) | Blackgrass plant response rating (blackgrass; [7]) | Blackgrass plant response rating (blackgrass; [8]) | Plant response rating, Blackgrass (blackgrass; 13 to 15 days) | Blackgrass plant response rating (blackgrass; [9]) | Ryegrass, Italian plant response rating (ryegrass, Italian; [7]) | Ryegrass, Italian plant response rating (ryegrass, Italian; [8]) | Plant response rating, Ryegrass, Italian (ryegrass, Italian; 13 to 15 days) | Ryegrass, Italian plant response rating (ryegrass, Italian; [9]) | Crabgrass, Large plant response rating (crabgrass, large; [7]) | Crabgrass, Large plant response rating (crabgrass, large; [8]) | Plant response rating, Crabgrass, Large (crabgrass, large; 13 to 15 days) | other results
1 | CCOc1cc(C(=O)NOC(C)C)nn1Cc1ccnc(C(F)(F)F)c1 [Compound 153] | 100 | 100 | 100 | 100 | 100 | 100 | 100 | 90 | 45 | 80 | 90 | 90 | 90 | 5 | 50 | 90 | 90 | 85 | 98 | 100 | Crabgrass, Large plant response rating (crabgrass, large; [9]): 100; Foxtail, Giant plant response rating (foxtail, giant; [7]): 60; Foxtail, Giant plant response rating (foxtail, giant; [8]): 85; Plant response rating, Foxtail, Giant (foxtail, giant; 13 to 15 days): 100; Foxtail, Giant plant response rating (foxtail, giant; [9]): 100; Oilseed Rape plant response rating (oilseed rape; [7]): 60; Oilseed Rape plant response rating (oilseed rape; [8]): 95; Plant response rating, Oilseed Rape (oilseed rape; 13 to 15 days): 95; Oilseed Rape plant response rating (oilseed rape; [9]): 95; Plant response rating, Wheat (wheat [4]): 15; Wheat plant response rating (wheat [4]): 0; Plant response rating (scale of 0 to 100 where 0 is no effect and 100 is complete control), Galium (galium): 50; Galium plant response rating (galium): 60; Plant response rating, Galium (galium; [10]): 80; Plant response rating, Galium (galium; [11]): 70; Plant response rating (scale of 0 to 100 where 0 is no effect and 100 is complete control), Corn (corn): 5; Corn plant response rating (corn): 10; Plant response rating, Corn (corn; [10]): 20; Plant response rating, Corn (corn; [11]): 30
2 | CCNC(=O)c1cc(CC)n(Cc2cc(C(F)(F)F)nn2C)n1 [Compound 154] | 100 | 100 | 100 | 100 | 100 | 100 | 100 | 20 | 45 | 75 | 90 | 90 | 90 | 5 | 10 | 50 | 90 | 100 | 100 | 100 | Crabgrass, Large plant response rating (crabgrass, large; [9]): 100; Foxtail, Giant plant response rating (foxtail, giant; [7]): 30; Foxtail, Giant plant response rating (foxtail, giant; [8]): 90; Plant response rating, Foxtail, Giant (foxtail, giant; 13 to 15 days): 100; Foxtail, Giant plant response rating (foxtail, giant; [9]): 100; Oilseed Rape plant response rating (oilseed rape; [7]): 85; Oilseed Rape plant response rating (oilseed rape; [8]): 95; Plant response rating, Oilseed Rape (oilseed rape; 13 to 15 days): 95; Oilseed Rape plant response rating (oilseed rape; [9]): 95; Plant response rating, Wheat (wheat [4]): 10; Wheat plant response rating (wheat [4]): 5; Plant response rating (scale of 0 to 100 where 0 is no effect and 100 is complete control), Galium (galium): 50; Galium plant response rating (galium): 50; Plant response rating, Galium (galium; [10]): 85; Plant response rating, Galium (galium; [11]): 65; Plant response rating (scale of 0 to 100 where 0 is no effect and 100 is complete control), Corn (corn): 5; Corn plant response rating (corn): 5; Plant response rating, Corn (corn; [10]): 10; Plant response rating, Corn (corn; [11]): 10
